{"source": "paper PMC6756013", "about": "“B591, a novel specific pan-PI3K inhibitor, preferentially targets cancer stem cells” (Oncogene, 2019)", "key": {"[1]": {"test_system": "MDA-MB-231 and SUM-159PT monolayer and mammosphere cells", "test": "Proliferation inhibition of monolayer versus mammosphere cells", "format": "cell-based, human", "protocol": "The proliferation inhibitory activities of B591 were compared between monolayer and mammosphere cells.\nCells were treated with indicated agents for 48 h, and cells were harvested and processed for apoptosis assay using the PE-Annexin V/7-AAD Apoptosis Detection Kit. d Representative flow cytometry plots of apoptosis inducing activity of B591 (10 μM) and paclitaxel (10 nM) on monolayer and mammosphere MDA-MB-231 cells. e B591 preferentially targeted CD44^high/CD24^low cells. Cells were treated with B591 or paclitaxel for 2 days. Following a 4-day recovery period, cells were co-stained with CD44 and CD24 antibodies and subjected to FACS analysis. Representative flow cytometry plots show the effect of B591 on CD44^high/CD24^low population in MDA-MB-231 cells in vitro. f B591 decreased mammosphere forming efficiency. Primary MDA-MB-231 mammospheres were treated with B591 or paclitaxel for 48 h. Results of the secondary mammosphere-formation assay are shown. Scale bar represents 40 μm. g B591 decreased the expression of CSC markers in MDA-MB-231 cells. Cells were treated with B591 or paclitaxel for 2 days. […] They label a gated population in plots with axes CD44 and CD24. / Panel E: DMSO is the vehicle control. Its printed value is included all the same."}, "[2]": {"test_system": "SUM-159PT orthotopic xenografts", "test": "Tumor recurrence study in SUM-159PT xenografts", "format": "in vivo, NOD/SCID mice", "conditions": "B591 10 mg/kg", "protocol": "Fig. 6 B591 reduces breast tumor metastasis and recurrence. a Representative images show the effect of B591 (8 mg/kg) on lung metastasis of 4T1 cells, and data from six mice were plotted. b SUM-159PT cells were respectively treated with the indicated agents (8 nM Paclitaxel, 8 nM Paclitaxel plus 5 μM B591) for 24 h, the cells were then cultured for mammospheres. Representative images were shown, and data from two independent experiments were plotted. c–f SUM-159PT xenografts (n = 7) were treated with 4 mg/kg Paclitaxel, or 10 mg/kg B591, or both for 2 weeks, then ended the treatment and waited for tumor recurrence. Tumor volume (c) and body weight (d) were measured every 2 days after treatment, and tumors were photographed (e) and weighted (f) at the end of the experiment. ^*p < 0.05, ^**p < 0.01 versus indicated groups\nIn the tumor recurrence study, orthotopic xenografts were established with 5 × 10^6 SUM-159PT cells. When tumor volume reached about 50 mm^3, mice were randomly divided into four groups for treatment with vehicle, 4 mg/kg Paclitaxel, 10 mg/kg B591, and combination of 4 mg/kg Paclitaxel plus 10 mg/kg B591 (i.p.). Treatment was stopped after 2 weeks, and the tumors were allowed for recurrence for 3 weeks. Tumor volume and the body weight of mice were measured during the experiments. In the end of treatment, the mice were killed, and the tumor tissues were dissected and weighted."}, "[3]": {"test_system": "lung metastasis of 4T1 cells", "test": "Breast cancer metastasis study", "format": "in vivo, NOD/SCID mice", "conditions": "8 mg/kg intraperitoneally once a day", "protocol": "Studies implicated that the process termed EMT is associated with features of CSCs, which are considered to be involved in metastasis, a major cause of cancer-associated deaths. 4T1 murine mammary carcinoma cells spontaneously produce highly metastatic tumors that can metastasize to the lung, liver, lymph nodes, and brain while the primary tumor is growing in situ. To determine the efficacy of B591 on tumor metastasis, the metastasis model was established by incubating 4T1 cells into the mammary gland of NOD/SCID mice and treated with 8 mg/kg of B591 intraperitoneally once a day. B591 decreased more than 50% of the metastatic tumors in the lung which spontaneously metastasize from the primary tumor in the mammary gland (Fig. 6a).\nTo establish the metastasis model, 3 × 10^5 of 4T1 cells were incubated into the mammary fat pad of NOD/SCID mice. When tumor volume reached about 50 mm^3, mice were randomly divided into two groups for treatment with 8 mg/kg of B591 or vehicle (i.p.) for 2 months. The metastatic tumors in lung were stained with ink as previously reported."}, "[4]": {"test_system": "MDA-MB-231 orthotopic xenografts", "test": "MDA-MB-231 orthotopic xenograft", "format": "in vivo, NOD/SCID mice", "conditions": "for Decrease of tumor burden (determined by volume): versus vehicle", "protocol": "Then we evaluated the inhibitory effect of B591 on CSCs by in vivo xenograft assay (Fig. 5a). B591 (4 or 16 mg/kg) was given to the NOD/SCID mice bearing orthotopic xenografts of human breast cancer MDA-MB-231 cells for 2 weeks. […] The inhibition of PI3K/mTOR pathway by B591 in tumors was further confirmed by western blot analysis.\nIn MDA-MB-231 xenografts experiment, 1 × 10^6 cells were incubated into the mammary fat pad of mice orthotopically. When the volume of tumor reached above 50 mm^3, the mice were randomly divided into three groups for introperitoneal (i.p.) injection with vehicle, 4 mg/kg and 16 mg/kg B591. The tumor volume and the body weight of mice were measured during the 2-weeks treatment. In the end of treatment, the mice were killed, and the tumor tissues were dissected and dissociated into single cell suspension with Dispase II (Roche, Basel, Switzerland) according with the manufacture’s protocol. Then these single cells were used for CSCs phenotype assay, ALDH activity assay, mammosphere formation assay and limiting dilution assay in vivo as described above."}, "[5]": {"test_system": "MDA-MB-231 and SUM-159PT mammospheres", "test": "Secondary mammosphere-formation assay", "format": "cell-based, human", "conditions": "primary mammospheres treated 48 h, then passaged", "protocol": "Cells were treated with indicated agents for 48 h, and cells were harvested and processed for apoptosis assay using the PE-Annexin V/7-AAD Apoptosis Detection Kit. d Representative flow cytometry plots of apoptosis inducing activity of B591 (10 μM) and paclitaxel (10 nM) on monolayer and mammosphere MDA-MB-231 cells. e B591 preferentially targeted CD44^high/CD24^low cells. Cells were treated with B591 or paclitaxel for 2 days. Following a 4-day recovery period, cells were co-stained with CD44 and CD24 antibodies and subjected to FACS analysis. Representative flow cytometry plots show the effect of B591 on CD44^high/CD24^low population in MDA-MB-231 cells in vitro. f B591 decreased mammosphere forming efficiency. Primary MDA-MB-231 mammospheres were treated with B591 or paclitaxel for 48 h. Results of the secondary mammosphere-formation assay are shown. Scale bar represents 40 μm. g B591 decreased the expression of CSC markers in MDA-MB-231 cells. Cells were treated with B591 or paclitaxel for 2 days. […]\nIn the mammosphere assay, MDA-MB-231 (Fig. 3f) and SUM-159PT (Supplementary Fig. S10D) cells were treated with B591 or paclitaxel, and the mammospheres were collected and subsequently passaged. Secondary Mammosphere-forming activity was determined, which reflects the self-renewal capability of CSCs. […]"}}}
{"smiles": "Cc1cc2c(cc1C)[n+](Cc1ccccc1Br)cn2Cc1ccc2c(c1)CCO2.[Br-]", "note": "[B591, 3-(2-bromobenzyl)-1-((2,3-dihydrobenzofuran-5-yl)methyl) -5,6-dimethyl-1H-benzo[d]imidazol-3-ium bromide]", "values": [{"measurement": "Proliferation inhibitory activity, mammosphere versus monolayer cells", "setting": "[1]", "result": "more potent against mammosphere cells"}, {"measurement": "Body weight", "setting": "[2]; with or without paclitaxel 4 mg/kg", "result": "no significant body weight loss"}, {"measurement": "Tumor growth and regrowth after end of treatment", "setting": "[2]; paclitaxel 4 mg/kg, i.p., 2 weeks, then 3 weeks recurrence", "result": "significant inhibition of tumor growth and notably delayed the relapse of breast cancer following cessation of paclitaxel treatment"}, {"measurement": "Decrease of metastatic tumors in the lung", "setting": "[3]", "result": "more than 50%"}, {"measurement": "Decrease of tumor burden (determined by volume)", "setting": "[4]; 4 mg/kg i.p., 2 weeks", "result": 40, "unit": "%"}, {"measurement": "Inhibition based on final tumor weights", "setting": "[4]; 16 mg/kg i.p., 2 weeks", "result": 70.7, "unit": "%"}, {"measurement": "Decrease of tumor burden (determined by volume)", "setting": "[4]; 16 mg/kg i.p., 2 weeks", "result": 60, "unit": "%"}, {"measurement": "Body weight", "setting": "[4]; 4 or 16 mg/kg, 2 weeks", "result": "no significant body weight loss"}, {"measurement": "CD44high/CD24low and ALDHhigh breast CSCs populations in xenograft tumors", "setting": "[4]; tumors dissociated at end of treatment", "result": "significantly reduced"}, {"measurement": "Secondary mammosphere-forming ability", "setting": "[5]", "result": "strikingly suppressed"}]}
